The values that follow come from paper PMC3685872 (Bioorganic & medicinal chemistry, 2013).

What is called IC50 is the concentration that inhibits the measured activity by half.

Series [1] deals with Jurkat T cell acute lymphoblastic leukemia cell line. The experiment in a line: Anti-leukemia AlamarBlue assay in Jurkat cells. It is filed as cell-based, human. The settings on record: for loss in anti-leukemic potency compared to dimer 838 / loss in anti-leukemic potency compared to oxygenated counterpart: Jurkat cells; for loss in anti-leukemic potency compared to dimer 838: relative to 838; for loss in anti-leukemic potency compared to oxygenated counterpart: phosphoryl oxygen replaced with sulfur. (In general: The colour change of resazurin is a common sign of viable cells or microbes.)

In series [2] the test system is prostate cancer LNCaP cells. Particulars: compared with standard drug doxorubicin; ref [12]; cited from earlier work.
The subject of series [3] is CMV. Particulars: cited from earlier work.
Series [4] concerns PHA-stimulated peripheral blood mononuclear cells (PBMCs). The experiment in a line: Toxicity to nonmalignant PHA-stimulated PBMCs. It is filed as cell-based. Particulars: Homo sapiens, PBMC, 48 h, read-out: PHA-stimulated PBMC IC50.

For `C[C@H]1[C@@H](CC(COP2(=O)Oc3ccccc3-c3ccccc3O2)C[C@H]2O[C@@H]3O[C@@]4(C)CC[C@H]5[C@H](C)CC[C@@H]([C@H]2C)[C@@]35OO4)O[C@@H]2O[C@@]3(C)CC[C@H]4[C@H](C)CC[C@@H]1[C@@]24OO3` (stereo partly drawn) [compound 836, dimer biphenylphosphate ester], the “loss in anti-leukemic potency compared to dimer 838” value (“loss … compared to dimer 838” for short) in series [1] was “about half as efficacious”.

With `C[C@H]1[C@@H](CC(COP2(=S)Oc3ccccc3-c3ccccc3O2)C[C@H]2O[C@@H]3O[C@@]4(C)CC[C@H]5[C@H](C)CC[C@@H]([C@H]2C)[C@@]35OO4)O[C@@H]2O[C@@]3(C)CC[C@H]4[C@H](C)CC[C@@H]1[C@@]24OO3` (stereo partly drawn) [compound 853, dimer biphenylthiophosphate ester], the “loss in anti-leukemic potency compared to oxygenated counterpart” value in series [1] is recorded as ~ 9 fold.

`CC(C)c1ccc(OP(=O)(OCC(C[C@H]2O[C@@H]3O[C@@]4(C)CC[C@H]5[C@H](C)CC[C@@H]([C@H]2C)[C@@]35OO4)C[C@H]2O[C@@H]3O[C@@]4(C)CC[C@H]5[C@H](C)CC[C@@H]([C@H]2C)[C@@]35OO4)Oc2ccc(C(C)C)cc2)cc1` [compound 923, dimer bis-(4-isopropylphenyl)phosphate ester]: the “loss … compared to dimer 838” value in series [1] is recorded as 5 fold.

`C[C@H]1[C@@H](CC(COP(=O)(Oc2ccccc2)Oc2ccccc2)C[C@H]2O[C@@H]3O[C@@]4(C)CC[C@H]5[C@H](C)CC[C@@H]([C@H]2C)[C@@]35OO4)O[C@@H]2O[C@@]3(C)CC[C@H]4[C@H](C)CC[C@@H]1[C@@]24OO3` (stereo partly drawn) [compound 838, trioxane dimer diphenyl phosphate ester]: the “potency at inhibiting growth of LNCaP cells” value in series [2] was “more potent than the standard drug doxorubicin”. In series [3] (ref [10]), the “selectivity index (anti-CMV/cytotoxicity)” value was “approximately 1500”.

Regarding `C[C@H]1[C@@H](CC(COP(=O)(OC2CCCCC2)OC2CCCCC2)C[C@H]2O[C@@H]3O[C@@]4(C)CC[C@H]5[C@H](C)CC[C@@H]([C@H]2C)[C@@]35OO4)O[C@@H]2O[C@@]3(C)CC[C@H]4[C@H](C)CC[C@@H]1[C@@]24OO3` (stereo partly drawn) [compound 851, dimer dicyclohexylphosphate ester], the “loss … compared to dimer 838” value in series [1] is recorded as “about half as efficacious”.

With `C[C@H]1[C@@H](CC(COP(=S)(Oc2ccccc2)Oc2ccccc2)C[C@H]2O[C@@H]3O[C@@]4(C)CC[C@H]5[C@H](C)CC[C@@H]([C@H]2C)[C@@]35OO4)O[C@@H]2O[C@@]3(C)CC[C@H]4[C@H](C)CC[C@@H]1[C@@]24OO3` (stereo partly drawn) [compound 855, dimer diphenylthiophosphate ester], the “loss in anti-leukemic potency compared to oxygenated counterpart” value in series [1] is listed as ~ 18 fold.

With `Cc1cccc(C)c1OP(=O)(OCC(C[C@H]1O[C@@H]2O[C@@]3(C)CC[C@H]4[C@H](C)CC[C@@H]([C@H]1C)[C@@]24OO3)C[C@H]1O[C@@H]2O[C@@]3(C)CC[C@H]4[C@H](C)CC[C@@H]([C@H]1C)[C@@]24OO3)Oc1c(C)cccc1C` [compound 895, dimer bis-(2,6-dimethylphenyl)phosphate ester], the “loss … compared to dimer 838” value in series [1] is given as “comparable potency”.

On to `C[C@H]1[C@@H](CC(COP(=O)(O)Oc2ccccc2)C[C@H]2O[C@@H]3O[C@@]4(C)CC[C@H]5[C@H](C)CC[C@@H]([C@H]2C)[C@@]35OO4)O[C@@H]2O[C@@]3(C)CC[C@H]4[C@H](C)CC[C@@H]1[C@@]24OO3` (stereo partly drawn) [compound 762, monophenylphosphate ester], for which, in series [1], the “loss … compared to dimer 838” value is on record as 70 fold. Besides, the IC50 in series [4] is about 40 µM.

For `CO[C@H]1O[C@@H]2O[C@@]3(C)CC[C@H]4[C@H](C)CC[C@@H]([C@H]1C)[C@@]24OO3` [Artemether, artemether, reference compound], in series [1] (Jurkat T-ALL cells, 48 hours of drug treatment, AlamarBlue, average of triplicate experiments), the “Anti-leukemia IC50” value was “essentially inactive”. The “activity against CMV” value in series [3] (as previously determined, ref [9]) was “weak activity”.
